Data published in ChEMBL document CHEMBL1671810, “Identification of a novel scaffold for allosteric inhibition of wild type and drug resistant HIV-1 reverse transcriptase by fragment library screening” (J Med Chem, 2011).
Activity calls are given as the source filed them. The calls are words filed in the database; no cut-off is given here.

What was measured:
[1] = molecular target: T1, Human immunodeficiency virus type 1 reverse transcriptase (Human immunodeficiency virus 1, UniProt Q72547, L100I); assay: Binding affinity to HIV1 BH10 isolate reverse transcriptase L100I mutant expressed in Escherichia coli BL21(DE3); design: species or system Human immunodeficiency virus type 1 BH10
[2] = molecular target: T2, Human immunodeficiency virus type 1 reverse transcriptase (Human immunodeficiency virus 1, UniProt Q72547, K103N); assay: Binding affinity to HIV1 BH10 isolate reverse transcriptase K103N mutant expressed in Escherichia coli BL21(DE3); design: species or system Human immunodeficiency virus type 1 BH10
[3] = Binding affinity to wild type HIV1 BH10 isolate reverse transcriptase expressed in Escherichia coli BL21(DE3); design: species or system Human immunodeficiency virus type 1 BH10
[4] = molecular target: T3, Human immunodeficiency virus type 1 reverse transcriptase (Human immunodeficiency virus 1, UniProt Q72547, Y181C); assay: Binding affinity to HIV1 BH10 isolate reverse transcriptase Y181C mutant expressed in Escherichia coli BL21(DE3); design: species or system Human immunodeficiency virus type 1 BH10
[5] = Inhibition of wild type HIV1 BH10 isolate reverse transcriptase catalytic activity expressed in Escherichia coli BL21(DE3) by UV-vis spectrophotometry; design: species or system Human immunodeficiency virus type 1 BH10
[6] = molecular target: T3, Human immunodeficiency virus type 1 reverse transcriptase; assay: Inhibition of HIV1 BH10 isolate reverse transcriptase Y181C mutant catalytic activity expressed in Escherichia coli BL21(DE3) by UV-vis spectrophotometry; design: species or system Human immunodeficiency virus type 1 BH10
[7] = molecular target: T2, Human immunodeficiency virus type 1 reverse transcriptase; assay: Inhibition of HIV1 BH10 isolate reverse transcriptase K103N mutant catalytic activity expressed in Escherichia coli BL21(DE3) by UV-vis spectrophotometry; design: species or system Human immunodeficiency virus type 1 BH10
[8] = molecular target: T1, Human immunodeficiency virus type 1 reverse transcriptase; assay: Inhibition of HIV1 BH10 isolate reverse transcriptase L100I mutant catalytic activity expressed in Escherichia coli BL21(DE3) by UV-vis spectrophotometry; design: species or system Human immunodeficiency virus type 1 BH10
[9] = system: Human immunodeficiency virus type 1 BH10; assay: Displacement of nevirapine from wild type HIV1 BH10 isolate reverse transcriptase expressed in Escherichia coli BL21(DE3) by competition assay

Structure (SMILES)	Kd [1]	Kd [2]	Kd [3]	Kd [4]	IC50 [5]	IC50 [6]	IC50 [7]	IC50 [8]	Activity [9]
C/C(=N\O)c1ccc2c(c1)CCC2	200 µM	50 µM	300 µM	50 µM	39 µM	–	–	–	–
O=C1CCc2c(Br)cccc21	40 µM	20 µM	270 µM	40 µM	4 µM	16 µM	16 µM	25 µM	–
COC(=O)C1=C(C)NC(=S)NC1C (stereo not given)	–	–	380 µM	700 µM	570 µM	–	–	–	–
Cc1cc2c(cc1[N+](=O)[O-])OCO2	40 µM	20 µM	79 µM	100 µM	150 µM	–	–	–	–
CC(C)N1CCC(CCc2c[nH]cn2)CC1	–	–	88 µM	–	–	–	–	–	–
Nc1cccc(-c2ccccc2)n1	–	–	–	–	–	–	–	–	inactive
CCCCCCCCNC(=O)NCc1ccc(O)c(CO)c1	–	–	190 µM	–	–	–	–	–	–
Cc1ccc(O)cc1	–	–	–	–	–	–	–	–	inactive
O=C(c1ccncc1)c1ccc(Cl)cc1	60 µM	600 µM	> 500 µM	700 µM	96 µM	–	–	–	–
C=CCNc1scnc1S(=O)(=O)c1ccccc1	90 µM	700 µM	210 µM	200 µM	5 µM	–	–	–	–
O=C1c2ccccc2CCc2ncccc21	200 µM	50 µM	180 µM	300 µM	430 µM	–	–	–	–
